Test results from article PMC6199744, “Development of Chemical Proteomics for the Folateome and Analysis of the Kinetoplastid Folateome” (ACS Infectious Diseases, 2018).
Read-outs that look alike come from different tables or passages of the source.

Assays:
Assay type in all cases: binding
[1] = molecular target: T1, HeLa cell extract proteins (Homo sapiens, UniProt P52294)
T1 construct: endogenous in cells; host or cells: HeLa cell extract

[2] = molecular target: T2, HeLa cell extract proteins (Homo sapiens, UniProt Q6R327)
T2 construct: endogenous in cells; host or cells: HeLa cell extract
T2 sequence (Q6R327 whole entry): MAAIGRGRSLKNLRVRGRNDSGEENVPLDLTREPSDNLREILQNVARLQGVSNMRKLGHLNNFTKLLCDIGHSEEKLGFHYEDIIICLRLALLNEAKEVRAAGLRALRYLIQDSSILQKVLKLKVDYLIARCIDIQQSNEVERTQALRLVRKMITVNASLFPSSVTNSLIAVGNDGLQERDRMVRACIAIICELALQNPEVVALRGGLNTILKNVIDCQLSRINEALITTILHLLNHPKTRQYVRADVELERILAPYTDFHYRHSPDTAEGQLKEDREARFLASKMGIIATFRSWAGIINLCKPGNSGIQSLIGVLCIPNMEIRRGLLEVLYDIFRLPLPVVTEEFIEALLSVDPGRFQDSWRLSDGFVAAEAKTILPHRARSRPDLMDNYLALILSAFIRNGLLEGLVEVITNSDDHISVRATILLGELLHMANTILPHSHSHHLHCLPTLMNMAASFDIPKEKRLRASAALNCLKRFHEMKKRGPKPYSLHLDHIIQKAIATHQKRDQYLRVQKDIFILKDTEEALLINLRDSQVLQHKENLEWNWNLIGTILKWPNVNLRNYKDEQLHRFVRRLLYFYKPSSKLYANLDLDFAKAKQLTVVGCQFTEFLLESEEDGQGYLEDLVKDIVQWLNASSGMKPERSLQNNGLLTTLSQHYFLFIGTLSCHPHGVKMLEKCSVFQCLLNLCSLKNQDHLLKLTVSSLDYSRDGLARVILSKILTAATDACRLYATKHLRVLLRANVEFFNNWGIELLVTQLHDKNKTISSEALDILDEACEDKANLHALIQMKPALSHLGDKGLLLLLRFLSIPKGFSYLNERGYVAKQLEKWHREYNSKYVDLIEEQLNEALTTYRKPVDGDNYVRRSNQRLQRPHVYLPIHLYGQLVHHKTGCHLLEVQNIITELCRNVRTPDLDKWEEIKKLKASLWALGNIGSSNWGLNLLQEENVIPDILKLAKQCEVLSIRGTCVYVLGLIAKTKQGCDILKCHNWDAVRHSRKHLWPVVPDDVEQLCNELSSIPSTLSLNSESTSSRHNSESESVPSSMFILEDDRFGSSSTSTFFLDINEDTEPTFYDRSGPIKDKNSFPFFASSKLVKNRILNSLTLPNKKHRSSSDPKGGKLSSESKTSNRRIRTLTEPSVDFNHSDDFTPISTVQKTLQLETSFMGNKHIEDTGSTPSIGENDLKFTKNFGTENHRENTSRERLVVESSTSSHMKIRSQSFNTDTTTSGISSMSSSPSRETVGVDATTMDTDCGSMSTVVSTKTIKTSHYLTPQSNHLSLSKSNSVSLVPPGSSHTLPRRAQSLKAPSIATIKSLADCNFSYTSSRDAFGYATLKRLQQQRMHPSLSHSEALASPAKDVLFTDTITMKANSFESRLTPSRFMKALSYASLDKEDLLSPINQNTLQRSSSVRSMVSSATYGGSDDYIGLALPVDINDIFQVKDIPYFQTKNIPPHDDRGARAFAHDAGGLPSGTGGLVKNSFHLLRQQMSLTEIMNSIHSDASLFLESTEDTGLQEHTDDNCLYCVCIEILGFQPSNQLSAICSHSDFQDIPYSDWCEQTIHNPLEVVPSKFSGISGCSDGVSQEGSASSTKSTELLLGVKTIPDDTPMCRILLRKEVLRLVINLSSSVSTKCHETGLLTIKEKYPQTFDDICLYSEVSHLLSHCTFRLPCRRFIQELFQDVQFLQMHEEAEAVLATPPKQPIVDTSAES

[3] = molecular target: T3, HeLa cell extract proteins (Homo sapiens, UniProt Q9UBQ5)
T3 construct: endogenous in cells; host or cells: HeLa cell extract
T3 sequence (Q9UBQ5 whole entry): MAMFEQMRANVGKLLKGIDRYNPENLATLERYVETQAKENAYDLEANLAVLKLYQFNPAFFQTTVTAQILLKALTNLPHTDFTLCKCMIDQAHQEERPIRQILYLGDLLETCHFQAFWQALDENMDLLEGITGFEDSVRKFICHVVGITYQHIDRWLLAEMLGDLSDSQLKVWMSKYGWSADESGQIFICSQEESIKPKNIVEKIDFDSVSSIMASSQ

[4] = molecular target: T4, HeLa cell extract proteins (Homo sapiens, UniProt O95848)
T4 construct: endogenous in cells; host or cells: HeLa cell extract
T4 sequence (O95848 1-222): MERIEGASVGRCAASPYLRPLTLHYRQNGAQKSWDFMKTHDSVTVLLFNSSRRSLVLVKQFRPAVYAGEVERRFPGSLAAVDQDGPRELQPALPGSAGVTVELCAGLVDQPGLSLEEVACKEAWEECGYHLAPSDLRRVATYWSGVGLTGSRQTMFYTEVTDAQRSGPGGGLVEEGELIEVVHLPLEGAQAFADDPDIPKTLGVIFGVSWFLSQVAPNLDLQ

[5] = molecular target: T5, HeLa cell extract proteins (Homo sapiens, UniProt Q9UHD8)
T5 construct: endogenous in cells; host or cells: HeLa cell extract
T5 sequence (Q9UHD8 1-586): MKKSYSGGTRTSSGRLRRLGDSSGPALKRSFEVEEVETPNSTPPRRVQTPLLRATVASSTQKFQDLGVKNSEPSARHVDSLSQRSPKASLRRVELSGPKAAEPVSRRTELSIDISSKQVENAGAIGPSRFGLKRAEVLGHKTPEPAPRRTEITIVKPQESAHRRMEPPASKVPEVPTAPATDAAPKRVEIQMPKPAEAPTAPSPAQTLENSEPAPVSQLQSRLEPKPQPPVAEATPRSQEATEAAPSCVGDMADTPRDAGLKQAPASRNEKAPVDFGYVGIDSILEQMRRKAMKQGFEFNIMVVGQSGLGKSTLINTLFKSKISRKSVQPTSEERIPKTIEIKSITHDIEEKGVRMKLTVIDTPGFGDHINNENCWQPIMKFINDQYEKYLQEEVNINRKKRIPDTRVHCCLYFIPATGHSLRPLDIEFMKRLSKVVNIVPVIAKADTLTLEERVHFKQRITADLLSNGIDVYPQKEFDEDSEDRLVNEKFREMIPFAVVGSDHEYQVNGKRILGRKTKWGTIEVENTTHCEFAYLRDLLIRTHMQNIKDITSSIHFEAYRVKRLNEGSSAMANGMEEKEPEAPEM

[6] = molecular target: T6, HeLa cell extract proteins (Homo sapiens, UniProt Q6PJG6)
T6 construct: endogenous in cells; host or cells: HeLa cell extract
T6 sequence (Q6PJG6 1-821): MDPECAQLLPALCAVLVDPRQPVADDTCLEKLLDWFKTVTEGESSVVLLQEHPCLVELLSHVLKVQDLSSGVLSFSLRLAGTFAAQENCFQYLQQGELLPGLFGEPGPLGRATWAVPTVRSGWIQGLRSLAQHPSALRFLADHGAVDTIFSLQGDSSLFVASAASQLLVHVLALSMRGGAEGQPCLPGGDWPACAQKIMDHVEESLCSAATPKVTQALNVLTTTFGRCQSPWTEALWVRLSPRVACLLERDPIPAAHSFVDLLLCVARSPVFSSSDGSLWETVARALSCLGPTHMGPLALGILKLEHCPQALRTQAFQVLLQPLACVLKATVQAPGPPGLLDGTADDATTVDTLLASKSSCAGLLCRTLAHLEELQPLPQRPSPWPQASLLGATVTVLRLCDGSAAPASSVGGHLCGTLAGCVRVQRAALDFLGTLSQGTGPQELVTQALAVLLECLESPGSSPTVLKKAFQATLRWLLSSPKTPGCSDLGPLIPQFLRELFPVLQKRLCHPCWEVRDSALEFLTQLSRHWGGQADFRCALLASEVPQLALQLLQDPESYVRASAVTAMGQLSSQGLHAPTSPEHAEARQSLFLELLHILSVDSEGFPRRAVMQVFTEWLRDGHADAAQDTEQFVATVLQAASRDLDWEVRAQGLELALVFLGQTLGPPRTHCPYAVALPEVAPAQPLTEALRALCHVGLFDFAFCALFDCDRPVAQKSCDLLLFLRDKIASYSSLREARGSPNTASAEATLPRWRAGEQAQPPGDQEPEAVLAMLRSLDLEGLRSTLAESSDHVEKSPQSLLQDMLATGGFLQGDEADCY

[7] = molecular target: T7, HeLa cell extract proteins (Homo sapiens, UniProt Q9NX61); conditions: captured protein TMEM161A; HeLa
T7 construct: endogenous in cells; host or cells: HeLa cell extract
T7 sequence (Q9NX61 29-479): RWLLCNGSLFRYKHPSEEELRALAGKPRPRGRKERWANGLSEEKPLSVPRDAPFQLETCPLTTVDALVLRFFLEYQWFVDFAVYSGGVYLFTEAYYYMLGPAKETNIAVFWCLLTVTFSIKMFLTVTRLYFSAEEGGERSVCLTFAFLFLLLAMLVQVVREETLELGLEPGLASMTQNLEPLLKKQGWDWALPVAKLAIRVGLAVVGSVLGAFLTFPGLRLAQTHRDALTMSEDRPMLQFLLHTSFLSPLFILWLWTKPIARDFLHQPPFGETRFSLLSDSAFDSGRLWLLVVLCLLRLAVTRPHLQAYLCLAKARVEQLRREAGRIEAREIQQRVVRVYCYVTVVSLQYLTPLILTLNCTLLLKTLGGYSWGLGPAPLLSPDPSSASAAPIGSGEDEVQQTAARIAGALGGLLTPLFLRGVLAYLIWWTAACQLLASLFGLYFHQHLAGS

[8] = molecular target: T8, HeLa cell extract proteins (Homo sapiens, UniProt P39687); conditions: protein ANP32A; HeLa
T8 construct: endogenous in cells; host or cells: HeLa cell extract
T8 sequence (P39687 whole entry): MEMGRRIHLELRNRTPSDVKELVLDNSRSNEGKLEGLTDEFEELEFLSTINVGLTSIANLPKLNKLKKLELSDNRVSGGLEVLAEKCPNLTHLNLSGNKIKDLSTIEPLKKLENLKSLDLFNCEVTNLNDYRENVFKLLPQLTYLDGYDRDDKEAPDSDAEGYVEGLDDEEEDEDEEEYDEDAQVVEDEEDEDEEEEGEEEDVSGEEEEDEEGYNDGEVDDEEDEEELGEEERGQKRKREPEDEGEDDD

[9] = molecular target: T9, HeLa cell extract proteins (Homo sapiens, UniProt O43776); conditions: protein NARS; HeLa
T9 construct: endogenous in cells; host or cells: HeLa cell extract
T9 sequence (O43776 1-548): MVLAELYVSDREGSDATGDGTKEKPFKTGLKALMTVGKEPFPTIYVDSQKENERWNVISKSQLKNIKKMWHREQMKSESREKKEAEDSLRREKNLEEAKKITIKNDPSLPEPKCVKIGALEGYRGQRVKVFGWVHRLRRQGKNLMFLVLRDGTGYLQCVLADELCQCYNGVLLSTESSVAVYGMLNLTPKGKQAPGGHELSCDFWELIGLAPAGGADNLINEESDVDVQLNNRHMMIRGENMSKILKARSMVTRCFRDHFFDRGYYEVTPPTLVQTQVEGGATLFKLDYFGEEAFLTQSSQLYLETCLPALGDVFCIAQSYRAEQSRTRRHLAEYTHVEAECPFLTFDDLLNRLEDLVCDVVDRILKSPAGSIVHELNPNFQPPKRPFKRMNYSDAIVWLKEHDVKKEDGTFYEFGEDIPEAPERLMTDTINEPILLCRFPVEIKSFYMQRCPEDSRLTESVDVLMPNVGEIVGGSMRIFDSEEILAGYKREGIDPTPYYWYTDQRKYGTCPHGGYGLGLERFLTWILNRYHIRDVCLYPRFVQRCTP

T1 sequence (P52294 whole entry): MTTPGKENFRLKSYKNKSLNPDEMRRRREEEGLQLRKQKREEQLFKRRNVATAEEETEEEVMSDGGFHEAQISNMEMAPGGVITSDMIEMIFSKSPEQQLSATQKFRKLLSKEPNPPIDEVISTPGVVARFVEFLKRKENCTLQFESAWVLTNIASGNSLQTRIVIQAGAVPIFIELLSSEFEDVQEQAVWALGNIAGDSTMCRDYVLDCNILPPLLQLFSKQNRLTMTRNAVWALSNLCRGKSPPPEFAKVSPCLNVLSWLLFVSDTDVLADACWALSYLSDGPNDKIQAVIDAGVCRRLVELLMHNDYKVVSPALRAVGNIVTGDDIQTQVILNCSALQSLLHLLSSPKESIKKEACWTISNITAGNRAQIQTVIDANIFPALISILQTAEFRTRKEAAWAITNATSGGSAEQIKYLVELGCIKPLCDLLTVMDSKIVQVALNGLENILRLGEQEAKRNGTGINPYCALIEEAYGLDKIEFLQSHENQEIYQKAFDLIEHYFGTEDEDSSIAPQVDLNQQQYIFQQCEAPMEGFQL

| Structure (SMILES) | fold changes relative to vehicle control ([1]; HeLa, protein KPNA1) | fold changes relative to vehicle control ([2]; HeLa, protein RICTOR) | fold changes relative to vehicle control ([3]; protein EIF3K, HeLa) | fold changes relative to vehicle control ([4]; protein NUDT14, HeLa) | fold changes relative to vehicle control ([5]; protein SEPT9, HeLa) | fold changes relative to vehicle control ([6]; HeLa, protein C7ORF27) | fold changes relative to vehicle control [7] | fold changes relative to vehicle control [8] | fold changes relative to vehicle control [9] | also measured |
| --- | --- | --- | --- | --- | --- | --- | --- | --- | --- | --- |
| Nc1nc2c(c(=O)[nH]1)N(C=O)C(CNc1ccc(C(=O)N[C@@H](CCC(=O)O)C(=O)O)cc1)CN2 (stereo partly drawn) [LEU, leucovorin] | 0.9 | 0.92 | 0.94 | 1.01 | 0.93 | 0.75 | – | – | – | – |
| Nc1nc2[nH]cc(CCc3ccc(C(=O)N[C@@H](CCC(=O)O)C(=O)O)cc3)c2c(=O)[nH]1 [PTX, pemetrexed] | – | – | – | – | – | – | – | – | – | fold changes relative to vehicle control [1]: 0.87; fold changes relative to vehicle control [2]: 0.97; fold changes relative to vehicle control [3]: 0.97; fold changes relative to vehicle control [4]: 0.49; fold changes relative to vehicle control [5]: 0.96; fold changes relative to vehicle control [6]: 0.88 |
| CCCCCCOc1ccc(Cc2cnc(N)nc2N)cc1 [compound 1] | – | – | – | – | – | – | 0.76 | 1.44 | 1.11 | – |
| CCCCCCOc1cccc(Cc2cnc(N)nc2N)c1 [compound 2] | – | – | – | – | – | – | 1.02 | 2.37 | 2.06 | – |
| Nc1nc2cccc(-c3ccccc3)c2n1Cc1ccc(Cl)c(Cl)c1 [compound 3] | – | – | – | – | – | – | 0.94 | 0.78 | 1.28 | – |
| NCCOCCOCC(=O)Nc1nc2ncc(CNc3ccc(C(=O)NC(CCC(=O)O)C(=O)O)cc3)nc2c(=O)[nH]1 (stereo not drawn) [compound 6] | 0.98 | 1.11 | 1.06 | 0.8 | 1 | 1.02 | – | – | – | – |
| NCCCNc1ccc(C(=O)NC(CCC(=O)O)C(=O)O)cc1 (stereo not drawn) [compound 7] | 0.93 | 1.11 | 1.1 | 0.97 | 0.92 | 0.87 | – | – | – | – |
